Laboratory results reported in US8937062B2, “Compositions and methods for treating, reducing, ameliorating, or preventing infections caused by antibacterial drug-resistant bacteria” (Bausch & Lomb Incorporated, priority 2007, dated 2015).
Converted amounts (≈) assume the structure as drawn. Read-outs that look alike come from different tables or passages of the source.

Key:
[1] = test system: APC-resistant Haemophilus influenza.; assay: MIC90, agar plate dilution method (NCCLS), Table 2; assay type: cell-based; conditions: for MIC90: Haemophilus
Experimental: (§1) The MIC90 values for this test were determined by the agar plate dilution method according to the National Committee for Clinical Laboratory Standards (“NCCLS”).

[2] = test system: GM-resistant P. aeruginosa; assay: MIC90, agar plate dilution method (NCCLS), Table 2; assay type: cell-based; conditions: 10 isolates; for MIC90: Pseudomonas aeruginosa
Experimental: as §1

GM-resistant S. aureus = assay: MIC90, agar plate dilution method (NCCLS), Table 2; assay type: cell-based; conditions: Staphylococcus aureus, 10 isolates
Experimental: as §1

[3] = test system: OFLX-resistant Enterobacteriaceae; assay: MIC90, agar plate dilution method (NCCLS), Table 2; assay type: cell-based
Experimental: as §1

OFLX-resistant S. aureus = assay: MIC90, agar plate dilution method (NCCLS), Table 2; assay type: cell-based; conditions: Staphylococcus aureus, 10 isolates
Experimental: as §1

[4] = test system: PCG-resistant S. pneumoniae; assay: MIC90, agar plate dilution method (NCCLS), Table 2; assay type: cell-based; conditions: 10 isolates; for MIC90: Streptococcus pneumoniae
Experimental: as §1

[5] = test system: methicillin-resistant S. aureus; assay: MIC90, Japanese Society of Chemotherapy guidelines (1993), Table 3; assay type: cell-based; conditions: Staphylococcus aureus, read-out: MIC90
Experimental: (§2) In a second test, compounds having Formulae IV and V, their racemic mixture, and OFLX were tested in vitro against S. aureus strains that are resistant to methicillin or penicillin. The test was conducted according to the guidelines of the Japanese Society of Chemotherapy (1993).

[6] = test system: penicillin-resistant S. aureus; assay: as above; assay type: cell-based; conditions: Staphylococcus aureus, read-out: MIC90
Experimental: as §2

[7] = test system: Methicillin-Resistant S. aureus Isolates; assay: In vitro anti-bacterial activity, fourth test, Table 5; assay type: cell-based, Staphylococcus aureus; conditions: Staphylococcus aureus, read-out: MIC90
Experimental: In a fourth test, the anti-bacterial activity of the compound having Formula IV was tested against some methicillin-resistant S. aureus bacteria strains and compared to the anti-bacterial activity of three commercially available antibiotics: nadifloxacin (“NDFX”), ofloxacin (“OFLX”), and sparfloxacin (“SPFX”).

[8] = test system: Ofloxacin-resistant Enterobacteriaceae; assay: organism not typed; assay type: cell-based
Source text: (§3) As disclosed above, most of these bacteria strains are also relevant to infections of the ear and upper respiratory tract.

[9] = test system: Gentamicin-resistant Pseudomonas aeruginosa; assay: In vitro anti-bacterial activity, resistant clinical isolates, fifth test, Table 6; assay type: cell-based; conditions: read-out: MIC90
Source text: as §3

[10] = test system: Gentamicin-resistant Staphylococcus aureus; assay: as above; assay type: cell-based; conditions: read-out: MIC90
Source text: as §3

[11] = test system: Ofloxacin-resistant Staphylococcus aureus; assay: as above; assay type: cell-based; conditions: read-out: MIC90
Source text: as §3

[12] = test system: Penicillin-resistant Streptococcus pneumoniae; assay: as above; assay type: cell-based; conditions: read-out: MIC90
Source text: as §3

[13] = test system: S. aureus Clinical Isolates; assay: In vitro activity against clinical isolates, sixth test, Table 7; assay type: cell-based; conditions: Staphylococcus aureus, 49 isolates
[14] = test system: S. pneumoniae Clinical Isolates; assay: as above; assay type: cell-based; conditions: 78 isolates

With `CC1COc2c(N3CCN(C)CC3)c(F)cc3c(=O)c(C(=O)O)cn1c23` (stereo not drawn) [OFLX, ofloxacin] the “MIC90 Range” value ([1]; APC-resistant Haemophilus influenza., 10 isolates) was “≦0.06 μg/ml”, the MIC90 ([1]; read-out: MIC90 Geometric Mean) was no more than 0.06 µg/mL and the MIC90 ([1]; read-out: MIC90 Value) was no more than 0.06 µg/mL. For the same molecule, the “MIC90 Range” value [2] was 0.5 to 128 µg/mL, the MIC90 ([2]; read-out: MIC90 Geometric Mean) was 6.5 µg/mL (≈ 18 µM) and the MIC90 ([2]; read-out: MIC90 Value) was 64 µg/mL (≈ 177 µM). For the same molecule, the MIC90 (GM-resistant S. aureus; read-out: MIC90 Geometric Mean) was 16 µg/mL (≈ 44.3 µM), the MIC90 (GM-resistant S. aureus; read-out: MIC90 Value) was greater than 128 µg/mL and the “MIC90 Range” value ([3]; OFLX-resistant Enterobacteriaceae, 10 isolates) was 8 to 64 µg/mL. The MIC90 ([3]; read-out: MIC90 Geometric Mean) was 21.1 µg/mL (≈ 58.4 µM), the MIC90 ([3]; read-out: MIC90 Value) was 64 µg/mL (≈ 177 µM) and the MIC90 (OFLX-resistant S. aureus; read-out: MIC90 Geometric Mean) was 104 µg/mL (≈ 288 µM). For the same molecule, the MIC90 (OFLX-resistant S. aureus; read-out: MIC90 Value) was greater than 128 µg/mL, the “MIC90 Range” value [4] was 1 to 2 µg/mL and the MIC90 ([4]; read-out: MIC90 Geometric Mean) was 1.52 µg/mL (≈ 4.21 µM). For the same molecule, the MIC90 ([4]; read-out: MIC90 Value) was 2 µg/mL (≈ 5.53 µM), the MIC90 ([5]; ATCC33591, S. aureus (ATCC 33591)) was 0.39 µg/mL (≈ 1.08 µM) and the MIC90 ([5]; ATCC33592, S. aureus (ATCC 33592)) was 0.2 µg/mL (≈ 0.553 µM). It also gave an MIC90 ([5]; ATCC33593, S. aureus (ATCC 33593)) of 0.2 µg/mL (≈ 0.553 µM), an MIC90 ([5]; S. aureus (No. 395)) of 0.39 µg/mL (≈ 1.08 µM) and an MIC90 ([5]; S. aureus (No. 415)) of 0.2 µg/mL (≈ 0.553 µM). The MIC90 ([5]; S. aureus (No. 419)) was 0.39 µg/mL (≈ 1.08 µM), the MIC90 ([5]; S. aureus (No. 420)) was 0.2 µg/mL (≈ 0.553 µM) and the MIC90 ([5]; S. aureus (No. 421)) was 0.39 µg/mL (≈ 1.08 µM). For the same molecule, the MIC90 ([6]; ATCC11632, S. aureus (ATCC 11632)) was 0.2 µg/mL (≈ 0.553 µM), the MIC90 ([6]; ATCC13301, S. aureus (ATCC 13301)) was 0.2 µg/mL (≈ 0.553 µM) and the MIC90 ([7]; ATCC33591, Staphylococcus aureus (ATCC 33591)) was 0.05 µg/mL (≈ 0.138 µM). For the same molecule, the MIC90 ([7]; ATCC33592, Staphylococcus aureus (ATCC 33592)) was 0.39 µg/mL (≈ 1.08 µM), the MIC90 ([7]; ATCC33593, Staphylococcus aureus (ATCC 33593)) was 0.2 µg/mL (≈ 0.553 µM) and the MIC90 ([7]; Staphylococcus aureus (No. 395)) was 0.2 µg/mL (≈ 0.553 µM). The MIC90 ([7]; Staphylococcus aureus (No. 415)) was 0.78 µg/mL (≈ 2.16 µM), the MIC90 ([7]; Staphylococcus aureus (No. 419)) was 3.13 µg/mL (≈ 8.66 µM) and the MIC90 ([7]; Staphylococcus aureus (No. 420)) was 1.56 µg/mL (≈ 4.32 µM). For the same molecule, the MIC90 ([7]; Staphylococcus aureus (No. 421)) was 1.56 µg/mL (≈ 4.32 µM), the MIC90 [8] was 64 µg/mL (≈ 177 µM) and the MIC90 [9] was 64 µg/mL (≈ 177 µM). It also gave an MIC90 [10] of 128 µg/mL (≈ 354 µM), an MIC90 [11] greater than 128 µg/mL and an MIC90 [12] of 2 µg/mL (≈ 5.53 µM). For the same molecule, the MIC90 [13] was 8 µg/mL (≈ 22.1 µM), the “MIC90 Range” value [14] was 1 to 2 µg/mL and the MIC90 ([14]; Streptococcus pneumoniae) was 1 µg/mL (≈ 2.77 µM).
